# pIC50: −log10 of the molar value.
# Biological target: T1, N-terminal His6-tagged recombinant full-length human Lck (Homo sapiens, UniProt P06239)
# T1 construct: N-terminal His6-tagged recombinant full-length human Lck; His6 (N); purchased Millipore
# Assay: Lck IMAP assay
# Type: biochemical
# Conditions: ATP 6 μM (KM,ATP), enzyme pre-incubated with compounds for 60 minutes, values given as bins
# Source text: Inhibition of kinase activity can be measured using the Immobilized Metal Assay for Phosphochemicals (IMAP) assay. IMAP is a homogeneous fluorescence polarization (FP) assay based on affinity capture of phosphorylated peptide substrates. IMAP uses fluorescein-labeled peptide substrates that, upon phosphorylation by a protein kinase, bind to so-called IMAP nanoparticles, which are derivatized with trivalent metal complexes. Binding causes a change in the rate of the molecular motion of the peptide, and results in an increase in the FP value observed for the fluorescein label attached to the substrate peptide (Gaudet et al. A homogeneous fluorescence polarization assay adaptable for a range of protein serine/threonine and tyrosine kinases. J. Biomol. Screen (2003) 8, 164-175).
# Enzyme used was N-terminal His6-tagged recombinant full-length human Lck from Millipore. Phosphorylation substrate was a fluorescein-labeled peptide (5FAM-KVEKIGEGTYGVV—NH2) derived from p34cdc2 from Molecular Devices. Enzymes, substrate and ATP were diluted in Kinase Reaction buffer (10 mM Tris-HCl, 10 mM MgCl2, 0.01% Tween-20, 0.05% NaN3 pH 7.2, 1 mM DTT (dithiotreitol). The final volume at the kinase reaction step of the assay in the 384-well plate was 20 μl. Final amount of enzyme in the reaction was 0.1 U/ml. Enzyme was pre-incubated with compounds diluted in 1% DMSO (dimethylsulfoxide) for 60 minutes at room temperature in the dark. Subsequently, peptide substrate to a final concentration of 100 nM, and ATP to a final concentration of 6 μM were added and the mix was incubated for 120 minutes at room temperature in the dark. IMAP progressive binding buffer (75% 1× buffer A, 25% 1× buffer B with 1:600 Progressive Binding Reagent; Molecular Devices) was added, followed by an incubation step of 60 minutes at room temperature in the dark. Finally, the FP signal was read on an Envision Multilabel reader (Perkin Elmer).
# All biochemical assays were run at KM,ATP of the enzyme using non-saturated conditions, meaning that during the incubation time it was assured that the signal increase was linear with time. For all biochemical assays a reference standard was used on each plate.
# Ten point serial dilutions using a √10 dilution factor were used for dose response testing of compounds. Starting concentration was 10^-6M for Lck IMAP assays. Dose-response curves were run as two experiments on duplicate plates (N=1; n=2). All data was normalized to percentage effect based on maximum (Max) and minimum (Min) control values. On every 384 assay plate 16 wells were used as minimum wells (wells with ATP, 0% effect) and 16 wells were used as maximum wells (wells without ATP, 100% effect). 16 wells were used for measuring the background signal, obtained from a kinase reaction containing all constituents except the labeled peptide substrate. Percentage effect was plotted against log dilution concentration of compound to obtain sigmoid dose response curves. pIC50 values were calculated using ActivityBase.
# T1 sequence (P06239 whole entry): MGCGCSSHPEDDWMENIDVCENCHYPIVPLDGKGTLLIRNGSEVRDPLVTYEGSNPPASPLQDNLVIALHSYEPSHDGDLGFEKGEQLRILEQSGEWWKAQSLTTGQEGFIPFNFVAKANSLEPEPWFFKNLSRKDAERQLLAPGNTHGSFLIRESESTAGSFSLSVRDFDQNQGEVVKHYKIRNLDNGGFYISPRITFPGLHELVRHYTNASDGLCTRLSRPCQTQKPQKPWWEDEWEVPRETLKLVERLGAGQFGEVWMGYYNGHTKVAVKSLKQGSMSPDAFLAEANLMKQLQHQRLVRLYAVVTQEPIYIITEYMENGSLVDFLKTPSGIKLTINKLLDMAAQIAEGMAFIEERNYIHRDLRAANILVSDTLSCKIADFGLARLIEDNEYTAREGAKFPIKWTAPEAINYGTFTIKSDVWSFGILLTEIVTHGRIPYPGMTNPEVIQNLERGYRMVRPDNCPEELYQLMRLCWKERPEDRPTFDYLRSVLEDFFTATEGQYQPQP
row,Compound,pIC50
1,"CCC[C@H](C)OC(=O)Nc1ccc(-c2nc(C3CCC(N4CCN(C)CC4)C3)n3ccnc(C)c23)cc1OC (mixture of isomers) [Example 28, (S)-Pentan-2-yl 2-methoxy-4-(8-methyl-3-(3-(4-methylpiperazin-1-yl)cyclopentyl)imidazo[1,5-a]pyrazin-1-yl)phenylcarbamate]",≥ 8.00
2,"COc1cc(-c2nc(C3CCOCC3)n3ccnc(C)c23)ccc1NC(=O)c1cc2ccccc2n1C [Example 1, N-[2-Methoxy-4-[8-methyl-3-(tetrahydro-2H-pyran-4-yl)imidazo[1,5-a]pyrazine]phenyl]-1-methyl-1H-indole-2-carboxamide]",≥ 8.00
3,"COc1cc(-c2nc([C@H]3CC[C@H](N4CCN(C(C)=O)CC4)CC3)n3ccnc(C)c23)ccc1NC(=O)c1cc2c(OC)cccc2n1C [Example 2, N-(4-(3-((Trans)-4-(4-acetylpiperazin-1-yl)cyclohexyl)-8-methylimidazo[1,5-a]pyrazin-1-yl)-2-methoxyphenyl)-4-methoxy-1-methyl-1H-indole-2-carboxamide]",≥ 8.00
4,"CCC[C@H](C)OC(=O)Nc1ccc(-c2nc(N3CCC3)n3ccnc(C)c23)cc1OC [Example 3, (S)-pentan-2-yl 4-(3-(azetidin-1-yl)-8-methylimidazo[1,5-a]pyrazin-1-yl)-2-methoxyphenylcarbamate]",7.00 to 8.00
5,"CCC[C@H](C)OC(=O)Nc1ccc(-c2nc([C@@H]3CCN(C(=O)CN(C)C)C3)n3ccnc(C)c23)cc1OC [Example 4, (S)-pentan-2-yl 4-(3-((R)-1-(2-(dimethylamino)acetyl)pyrrolidin-3-yl)-8-methylimidazo[1,5-a]pyrazin-1-yl)-2-methoxyphenylcarbamate]",≥ 8.00
6,"COc1cc(-c2nc([C@H]3CC[C@H](OC(C)=O)CC3)n3ccnc(C)c23)ccc1NC(=O)c1cc2c(OC)cccc2n1C [Example 5, (Trans)-4-(1-(3-methoxy-4-(4-methoxy-1-methyl-1H-indole-2-carboxamido)phenyl)-8-methylimidazo[1,5-a]pyrazin-3-yl)cyclohexyl acetate]",≥ 8.00
7,"COc1cc(-c2nc([C@H]3CC[C@H](O)CC3)n3ccnc(C)c23)ccc1NC(=O)c1cc2c(OC)cccc2n1C [Example 6, N-(4-(3-((trans)-4-hydroxycyclohexyl)-8-methylimidazo[1,5-a]pyrazin-1-yl)-2-methoxyphenyl)-4-methoxy-1-methyl-1H-indole-2-carboxamide]",≥ 8.00
8,"COc1cc(-c2nc([C@H]3CC[C@H](N4CCN(C)CC4)CC3)n3ccnc(C)c23)ccc1NC(=O)c1cc2c(OC)cccc2n1C [Example 7, 4-Methoxy-N-(2-methoxy-4-(8-methyl-3-((trans)-4-(4-methylpiperazin-1-yl)cyclohexyl)imidazo[1,5-a]pyrazin-1-yl)phenyl)-1-methyl-1H-indole-2-carboxamide]",≥ 8.00
9,"COc1cc(-c2nc([C@H]3CC[C@@H](N4CCN(C)CC4)CC3)n3ccnc(C)c23)ccc1NC(=O)c1cc2c(OC)cccc2n1C [Example 8, 4-Methoxy-N-(2-methoxy-4-(8-methyl-3-((cis)-4-(4-methylpiperazin-1-yl)cyclohexyl)imidazo[1,5-a]pyrazin-1-yl)phenyl)-1-methyl-1H-indole-2-carboxamide]",≥ 8.00
10,"COc1cc(-c2nc([C@H]3CC[C@H](N4CC(F)(F)C4)CC3)n3ccnc(C)c23)ccc1NC(=O)c1cc2c(OC)cccc2n1C [Example 9, N-(4-(3-((trans)-4-(3,3-difluoroazetidin-1-yl)cyclohexyl)-8-methylimidazo[1,5-a]pyrazin-1-yl)-2-methoxyphenyl)-4-methoxy-1-methyl-1H-indole-2-carboxamide]",≥ 8.00
11,"COc1cc(-c2nc([C@H]3CC[C@@H](N4CC(F)(F)C4)CC3)n3ccnc(C)c23)ccc1NC(=O)c1cc2c(OC)cccc2n1C [Example 10, N-(4-(3-((cis)-4-(3,3-difluoroazetidin-1-yl)cyclohexyl)-8-methylimidazo[1,5-a]pyrazin-1-yl)-2-methoxyphenyl)-4-methoxy-1-methyl-1H-indole-2-carboxamide]",≥ 8.00
12,"CCC[C@H](C)OC(=O)Nc1ccc(-c2nc([C@H]3CC[C@H](NCCOC)CC3)n3ccnc(C)c23)cc1OC [Example 11, (S)-Pentan-2-yl 2-methoxy-4-(3-((trans)-4-(2-methoxyethylamino)cyclohexyl)-8-methyl-imidazo[1,5-a]pyrazin-1-yl)phenylcarbamate]",≥ 8.00
13,"COc1cc(-c2nc([C@H]3CC[C@H](N4CCOCC4)CC3)n3ccnc(C)c23)ccc1NC(=O)c1cc2ccccc2n1C [Example 12, N-(2-methoxy-4-(8-methyl-3-((trans)-4-morpholinocyclohexyl)imidazo[1,5-a]pyrazin-1-yl)phenyl)-1-methyl-1H-indole-2-carboxamide]",≥ 8.00
14,"COc1cc(-c2nc(C3(C)COC3)n3ccnc(C)c23)ccc1NC(=O)c1cc2c(OC)cccc2n1C [Example 13, 4-Methoxy-N-(2-methoxy-4-(8-methyl-3-(3-methyloxetan-3-yl)imidazo[1,5-a]pyrazin-1-yl)phenyl)-1-methyl-1H-indole-2-carboxamide]",≥ 8.00
15,"COc1cc(-c2nc(CO)n3ccnc(C)c23)ccc1NC(=O)c1cc2c(OC)cccc2n1C [Example 14, N-(4-(3-(hydroxymethyl)-8-methylimidazo[1,5-a]pyrazin-1-yl)-2-methoxyphenyl)-4-methoxy-1-methyl-1H-indole-2-carboxamide]",7.00 to 8.00
16,"COc1cc(-c2nc(Cn3ccnc3)n3ccnc(C)c23)ccc1NC(=O)c1cc2c(OC)cccc2n1C [Example 15, N-(4-(3-((1H-imidazol-1-yl)methyl)-8-methylimidazo[1,5-a]pyrazin-1-yl)-2-methoxyphenyl)-4-methoxy-1-methyl-1H-indole-2-carboxamide]",6.00 to 7.00
17,"COc1cc(-c2nc(C3CN(C4CCOCC4)C3)n3ccnc(C)c23)ccc1NC(=O)c1cc2c(OC)cccc2n1C [Example 16, 4-Methoxy-N-(2-methoxy-4-(8-methyl-3-(1-(tetrahydro-2H-pyran-4-yl)azetidin-3-yl)imidazo[1,5-a]pyrazin-1-yl)phenyl)-1-methyl-1H-indole-2-carboxamide]",7.00 to 8.00
18,"COc1cc(-c2nc(C3CCNCC3)n3ccnc(C)c23)ccc1NC(=O)c1cc2c(OC)cccc2n1C [Example 17, 4-Methoxy-N-(2-methoxy-4-(8-methyl-3-(piperidin-4-yl)imidazo[1,5-a]pyrazin-1-yl)phenyl)-1-methyl-1H-indole-2-carboxamide]",≥ 8.00
19,"COc1cc(-c2nc(C3CCN(CC(=O)N(C)C)CC3)n3ccnc(C)c23)ccc1NC(=O)c1cc2ccccc2n1C [Example 18, N-(4-(3-(1-(2-(dimethylamino)-2-oxoethyl)piperidin-4-yl)-8-methylimidazo[1,5-a]pyrazin-1-yl)-2-methoxyphenyl)-1-methyl-1H-indole-2-carboxamide]",≥ 8.00
20,"COc1cc(-c2nc(C3CCN(C(=O)CN(C)C)CC3)n3ccnc(C)c23)ccc1NC(=O)c1cc2ccccc2n1C [Example 19, N-(4-(3-(1-(2-(dimethylamino)acetyl)piperidin-4-yl)-8-methylimidazo[1,5-a]pyrazin-1-yl)-2-methoxyphenyl)-1-methyl-1H-indole-2-carboxamide]",≥ 8.00
21,"COc1cc(-c2nc(C3CCN(C(=O)CN)CC3)n3ccnc(C)c23)ccc1NC(=O)c1cc2ccccc2n1C [Example 20, N-(4-(3-(1-(2-Aminoacetyl)piperidin-4-yl)-8-methylimidazo[1,5-a]pyrazin-1-yl)-2-methoxyphenyl)-1-methyl-1H-indole-2-carboxamide]",≥ 8.00
22,"COc1cc(-c2nc(C3CCN(C(N)=O)CC3)n3ccnc(C)c23)ccc1NC(=O)c1cc2c(OC)cccc2n1C [Example 21, N-(4-(3-(1-carbamoylpiperidin-4-yl)-8-methylimidazo[1,5-a]pyrazin-1-yl)-2-methoxyphenyl)-4-methoxy-1-methyl-1H-indole-2-carboxamide]",≥ 8.00
23,"COC(=O)N1CCC(c2nc(-c3ccc(NC(=O)c4cc5c(OC)cccc5n4C)c(OC)c3)c3c(C)nccn23)CC1 [Example 22, Methyl 4-(1-(3-methoxy-4-(4-methoxy-1-methyl-1H-indole-2-carboxamido)phenyl)-8-methylimidazo[1,5-a]pyrazin-3-yl)piperidine-1-carboxylate]",≥ 8.00

# — US8658794B2, “8-methyl-1-phenyl-imidazol[1,5-a]pyrazine compounds as Lck inhibitors and uses thereof” (Merck Sharp & Dohme B.V., priority 2010, dated 2014)
